Assay results as given in US20250066290A1, “DHODH INHIBITORS CONTAINING A CARBOXYLIC ACID BIOISOSTERE” (IMMUNIC AG, priority 2021, published 2025).
Where two headings read alike, the source gives them in different places.

Key:
[1] = biological target: N-terminally truncated recombinant hDHODH enzyme (Homo sapiens, UniProt Q02127); test: biochemical; type: biochemical
Procedure: Briefly, the hDHODH concentration was adjusted in a way that an average slope of approximately 0.2 AU/min served as the positive control (e.g. without inhibitor). The standard assay mixture contained 60 μM 2,6-dichloroindophenol, 50 μM decylubiquinone and 100 μM dihydroorotate. The hDHODH enzyme with or without at least six different concentrations of the compounds was added and measurements were performed in 50 mM TrisHCl, 150 mM KCl and 0.1% Triton X-100 at pH 8.0 and at 30° C. The reaction was started by adding dihydroorotate and measuring the absorption at 600 nm for 2 min. For the determination of the IC50 values, each data point was recorded in triplicate. […].

[2] = system: SARS-CoV-2; test: SARS-CoV-2 viral replication (YFP) assay; type: cell-based; conditions: Severe acute respiratory syndrome coronavirus 2, read-out: EC50 range
[3] = human DHODH assay, read-out: IC50 range

N-terminally truncated recombinant hDHODH enzyme, sequence (Q02127 whole entry, looked up, the tested form may be a part): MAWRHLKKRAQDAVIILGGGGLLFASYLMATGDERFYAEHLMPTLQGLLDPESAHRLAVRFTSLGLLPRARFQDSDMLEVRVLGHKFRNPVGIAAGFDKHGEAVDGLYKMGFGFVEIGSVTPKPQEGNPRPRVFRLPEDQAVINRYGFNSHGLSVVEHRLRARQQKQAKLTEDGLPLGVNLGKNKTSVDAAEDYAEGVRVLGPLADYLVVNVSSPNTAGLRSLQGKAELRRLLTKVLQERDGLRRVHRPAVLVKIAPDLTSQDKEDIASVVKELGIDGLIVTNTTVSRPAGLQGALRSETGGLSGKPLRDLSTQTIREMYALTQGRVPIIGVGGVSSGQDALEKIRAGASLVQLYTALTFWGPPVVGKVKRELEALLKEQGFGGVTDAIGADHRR

Row | Structure (SMILES) | IC50 [1] [nM] | EC50 [2] [nM] | IC50 [1, 3] [nM]
1 | [2H]C([2H])([2H])Oc1cccc(-c2cc(F)c(NC(=O)C3=C(C(=O)NOC)CCC3)c(C#N)c2)c1 [8/3] | 1000 to 10000 | < 10000 | –
2 | [2H]C([2H])([2H])ONC(=O)c1sccc1C(=O)Nc1c(F)cc(-c2cccc(OC([2H])([2H])[2H])c2)cc1F [9/2] | – | < 1000 | < 100
3 | [2H]C([2H])([2H])Oc1cccc(-c2c(F)cc(NC(=O)c3ccsc3C(=O)NOC)cc2F)c1 [9/3] | – | < 1000 | < 100
4 | [2H]C([2H])([2H])Oc1cccc(-c2ccc(NC(=O)c3ccsc3C(=O)NOC)c(F)c2F)c1 [9/4] | – | < 1000 | < 100
5 | [2H]C([2H])([2H])Oc1cccc(-c2cc(F)c(NC(=O)c3ccsc3C(=O)NOC)c(F)c2F)c1 [9/5] | – | < 1000 | < 100
6 | [2H]C([2H])([2H])Oc1cccc(-c2c(F)c(F)c(NC(=O)c3ccsc3C(=O)NOCCO)c(F)c2F)c1 [9/7] | – | < 1000 | < 100
7 | [2H]C([2H])([2H])Oc1cccc(-c2c(F)c(F)c(NC(=O)c3occc3C(=O)NOC)c(F)c2F)c1 [9/8] | – | < 1000 | < 100
8 | [2H]C([2H])([2H])Oc1cccc(-c2cc(F)c(NC(=O)C3=C(C(=O)NS(N)(=O)=O)COC3)c(F)c2)c1 [Example 2-1, N^3-(3,5-Difluoro-3′-(methoxy-d3)-[1,1′-biphenyl]-4-yl)-N^4-sulfamoyl-2,5-dihydrofuran-3,4-di-carboxamide] | 100 to 1000 | 10000 to 25000 | –
9 | [2H]C([2H])([2H])Oc1cccc(-c2c(F)c(F)c(NC(=O)C3=C(C(=O)NS(N)(=O)=O)COC3)c(F)c2F)c1 [Example 2-1/1] | – | 10000 to 25000 | < 100
10 | [2H]C([2H])([2H])Oc1cccc(-c2cc(F)c(NC(=O)C3=C(/C(N)=N/O)CCC3)c(F)c2)c1 [Example 3-1, (Z)—N-(3,5-Difluoro-3′-(methoxy-d3)-[1,1′-biphenyl]-4-yl)-2-(N-hydroxycarbamimid-oyl)cyclopent-1-ene-1-carboxamide] | > 10000 | < 10000 | –
11 | [2H]C([2H])([2H])Oc1cccc(-c2cc(F)c(NC(=O)C3=C(c4noc(=O)[nH]4)CCC3)c(F)c2)c1 [Example 3-2, N-(3,5-Difluoro-3′-(methoxy-d3)-[1,1′-biphenyl]-4-yl)-2-(5-oxo-4,5-dihydro-1,2,4-oxadiazol-3-yl)cyclopent-1-ene-1-carboxamide] | – | < 10000 | > 10000
12 | [2H]C([2H])([2H])Oc1cccc(-c2c(F)c(F)c(NC(=O)C3=C(c4nn[nH]n4)COC3)c(F)c2F)c1 [Example 3/1] | 1000 to 10000 | 25000 to 50000 | –
13 | [2H]C([2H])([2H])Oc1cccc(-c2cc(F)c(NC(=O)C3=C(C(=O)NOCCO)CCC3)c(F)c2)c1 [Example 4/1] | 1000 to 10000 | < 10000 | –
14 | [2H]C([2H])([2H])Oc1cccc(-c2cc(F)c(NC(=O)C3=C(C(=O)NOCC#N)CCC3)c(F)c2)c1 [Example 4/3] | 1000 to 10000 | 10000 to 25000 | –
15 | [2H]C([2H])([2H])Oc1cccc(-c2cc(F)c(NC(=O)C3=C(C(=O)NOC)COC3)c(F)c2)c1 [Example 5, N^3-(3,5-Difluoro-3′-(methoxy-d3)-[1,1′-biphenyl]-4-yl)-N^4-methoxy-2,5-dihydrofuran-3,4-dicarboxamide] | 100 to 1000 | < 10000 | –
16 | [2H]c1c([2H])c([2H])c(-c2c(F)c(F)c(NC(=O)C3=C(C(=O)NOC([2H])([2H])[2H])COC3)c(F)c2F)c([2H])c1[2H] [Example 5/1] | – | < 1000 | < 100
17 | [2H]C([2H])([2H])Oc1cccc(-c2c(F)c(F)c(NC(=O)C3=C(C(=O)NOC)CSC3)c(F)c2F)c1 [Example 6/1] | – | < 1000 | < 100
18 | [2H]C([2H])([2H])Oc1cccc(-c2cnc(NC(=O)C3=C(C(=O)NOC)CCC3)c(F)c2)c1 [Example 8, N^1-(3-Fluoro-5-(3-(methoxy-d3)phenyl)pyridin-2-yl)-N^2-methoxycyclopent-1-ene-1,2-dicarboxamide] | 1000 to 10000 | > 50000 | –
